PubChem BioAssay AID1963871 (Molecular Pharmacology Branch, DTP, NCI, 2024)

Test system: KRAS-mutant PDC multicell tumor spheroid viability
Test: Anticancer human tumor 521955-158-R2-J5-PDC patient-derived pancreatic carcinoma cell line growth inhibition [KRAS2]
Settings: for IC50: curve of first compound; for viability, T/C: stronger effect = lower value
Procedure, shortened: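 Combination screen of spheroid viability in tumor-cell co-cultures with endothelial (HUVEC) and mesenchymal stem cell stroma. Each agent was tested in half-log dilutions, topping at clinical Cmax or at 10 microM without a known Cmax.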

[1] = second compound 0.1 µM, first compound 0.0316 µM
[2] = second compound 0.1 µM, first compound 0.1 µM
[3] = second compound 0.1 µM, first compound 0.316 µM
[4] = second compound 0.1 µM, first compound 1 µM
[5] = second compound 0.1 µM, first compound 3.16 µM
[6] = second compound 0.1 µM, first compound 10 µM
[7] = second compound 0.316 µM, first compound 0.0316 µM
[8] = second compound 0.316 µM, first compound 0.1 µM
[9] = second compound 0.316 µM, first compound 0.316 µM
[10] = second compound 0.316 µM, first compound 1 µM
[11] = second compound 0.316 µM, first compound 3.16 µM
[12] = second compound 0.316 µM, first compound 10 µM
[13] = second compound 1 µM, first compound 0.0316 µM
[14] = second compound 1 µM, first compound 0.1 µM
[15] = second compound 1 µM, first compound 0.316 µM
[16] = second compound 1 µM, first compound 1 µM
[17] = second compound 1 µM, first compound 3.16 µM
[18] = second compound 1 µM, first compound 10 µM
[19] = second compound 3.16 µM, first compound 0.0316 µM
[20] = second compound 3.16 µM, first compound 0.1 µM
[21] = second compound 3.16 µM, first compound 0.316 µM
[22] = second compound 3.16 µM, first compound 1 µM
[23] = second compound 3.16 µM, first compound 3.16 µM
[24] = second compound 3.16 µM, first compound 10 µM
[25] = second compound 10 µM, first compound 0.0316 µM
[26] = second compound 10 µM, first compound 0.1 µM
[27] = second compound 10 µM, first compound 0.316 µM
[28] = second compound 10 µM, first compound 1 µM
[29] = second compound 10 µM, first compound 3.16 µM
[30] = second compound 10 µM, first compound 10 µM
[31] = second compound 0.1 µM, first compound 0.00316 µM
[32] = second compound 0.1 µM, first compound 0.01 µM
[33] = second compound 0.316 µM, first compound 0.00316 µM
[34] = second compound 0.316 µM, first compound 0.01 µM
[35] = second compound 1 µM, first compound 0.00316 µM
[36] = second compound 1 µM, first compound 0.01 µM
[37] = second compound 3.16 µM, first compound 0.00316 µM
[38] = second compound 3.16 µM, first compound 0.01 µM
[39] = second compound 10 µM, first compound 0.00316 µM
[40] = second compound 10 µM, first compound 0.01 µM
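Note: viability read after seven days of drug exposure.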

## CC(C)NCC(C(=O)N1CCN(c2ncnc3c2C(C)CC3O)CC1)c1ccc(Cl)cc1 (stereo not given) + CNCc1ccccc1-c1csc(C(C)Nc2nc(C)nc3cc(OC)c(OC)cc23)c1
Second compound 0.1 µM
  IC50: > 10000 nM
Second compound 0.316 µM
  IC50: > 10000 nM
Second compound 1 µM
  IC50: 4280 nM
Second compound 3.16 µM
  IC50: < 31.6 nM
Second compound 10 µM
  IC50: < 31.6 nM
[1]
  viability, T/C: 103%
[2]
  viability, T/C: 104%
[3]
  viability, T/C: 83.4%
[4]
  viability, T/C: 77.6%
[5]
  viability, T/C: 84.1%
[6]
  viability, T/C: 66.3%
[7]
  viability, T/C: 101%
[8]
  viability, T/C: 102%
[9]
  viability, T/C: 79.9%
[10]
  viability, T/C: 70.1%
[11]
  viability, T/C: 67.5%
[12]
  viability, T/C: 55.9%
[13]
  viability, T/C: 109%
[14]
  viability, T/C: 98.5%
[15]
  viability, T/C: 75.4%
[16]
  viability, T/C: 66.5%
[17]
  viability, T/C: 58%
[18]
  viability, T/C: 38.2%
[19]
  viability, T/C: 1.5%
[20]
  viability, T/C: 1.33%
[21]
  viability, T/C: 1.91%
[22]
  viability, T/C: 0.59%
[23]
  viability, T/C: 0.9%
[24]
  viability, T/C: 0.33%
[25]
  viability, T/C: 0.61%
[26]
  viability, T/C: 1.13%
[27]
  viability, T/C: 0.73%
[28]
  viability, T/C: 0.33%
[29]
  viability, T/C: 2.15%
[30]
  viability, T/C: 0.33%

## CC1(C)CCC(CN2CCN(c3ccc(C(=O)NS(=O)(=O)c4ccc(NCC5CCOCC5)c([N+](=O)[O-])c4)c(Oc4cnc5[nH]ccc5c4)c3)CC2)=C(c2ccc(Cl)cc2)C1 + CNCc1ccccc1-c1csc(C(C)Nc2nc(C)nc3cc(OC)c(OC)cc23)c1
Second compound 0.1 µM
  IC50: 6160 nM
Second compound 0.316 µM
  IC50: 5210 nM
Second compound 1 µM
  IC50: 4130 nM
Second compound 3.16 µM
  IC50: < 31.6 nM
Second compound 10 µM
  IC50: < 31.6 nM
[1]
  viability, T/C: 98.8%
[2]
  viability, T/C: 98.8%
[3]
  viability, T/C: 97.2%
[4]
  viability, T/C: 102%
[5]
  viability, T/C: 104%
[6]
  viability, T/C: 13.4%
[7]
  viability, T/C: 90.2%
[8]
  viability, T/C: 94.1%
[9]
  viability, T/C: 93.4%
[10]
  viability, T/C: 89.2%
[11]
  viability, T/C: 80.8%
[12]
  viability, T/C: 9.94%
[13]
  viability, T/C: 91.1%
[14]
  viability, T/C: 104%
[15]
  viability, T/C: 103%
[16]
  viability, T/C: 84.5%
[17]
  viability, T/C: 64.2%
[18]
  viability, T/C: 5.98%
[19]
  viability, T/C: 0.76%
[20]
  viability, T/C: 3.72%
[21]
  viability, T/C: 43.5%
[22]
  viability, T/C: 1.04%
[23]
  viability, T/C: 1.54%
[24]
  viability, T/C: 0.73%
[25]
  viability, T/C: 0.3%
[26]
  viability, T/C: 0.27%
[27]
  viability, T/C: 0.23%
[28]
  viability, T/C: 0.22%
[29]
  viability, T/C: 0.67%
[30]
  viability, T/C: 0.32%

## CCN1CCN(Cc2ccc(Nc3ncc(F)c(-c4cc(F)c5nc(C)n(C(C)C)c5c4)n3)nc2)CC1 + CNCc1ccccc1-c1csc(C(C)Nc2nc(C)nc3cc(OC)c(OC)cc23)c1
Second compound 0.1 µM
  IC50: > 1000 nM
Second compound 0.316 µM
  IC50: > 1000 nM
Second compound 1 µM
  IC50: 627 nM
Second compound 3.16 µM
  IC50: < 3.16 nM
Second compound 10 µM
  IC50: < 3.16 nM
[31]
  viability, T/C: 107%
[32]
  viability, T/C: 97.5%
[1]
  viability, T/C: 94.4%
[2]
  viability, T/C: 89.5%
[3]
  viability, T/C: 108%
[4]
  viability, T/C: 94.9%
[33]
  viability, T/C: 120%
[34]
  viability, T/C: 108%
[7]
  viability, T/C: 89.6%
[8]
  viability, T/C: 107%
[9]
  viability, T/C: 103%
[10]
  viability, T/C: 93.4%
[35]
  viability, T/C: 116%
[36]
  viability, T/C: 111%
[13]
  viability, T/C: 117%
[14]
  viability, T/C: 95.3%
[15]
  viability, T/C: 119%
[16]
  viability, T/C: 7.8%
[37]
  viability, T/C: 2.02%
[38]
  viability, T/C: 0.33%
[19]
  viability, T/C: 0.25%
[20]
  viability, T/C: 0.25%
[21]
  viability, T/C: 0.17%
[22]
  viability, T/C: 0.6%
[39]
  viability, T/C: 0.21%
[40]
  viability, T/C: 0.26%
[25]
  viability, T/C: 0.29%
[26]
  viability, T/C: 0.24%
[27]
  viability, T/C: 0.21%
[28]
  viability, T/C: 0.26%

## Cn1ncnc1[C@H]1c2n[nH]c(=O)c3cc(F)cc(c23)N[C@@H]1c1ccc(F)cc1 + CNCc1ccccc1-c1csc(C(C)Nc2nc(C)nc3cc(OC)c(OC)cc23)c1
Second compound 0.1 µM
  IC50: > 100 nM
Second compound 0.316 µM
  IC50: > 100 nM
Second compound 1 µM
  IC50: > 100 nM
Second compound 3.16 µM
  IC50: < 0.316 nM
Second compound 10 µM
  IC50: < 0.316 nM
Second compound 0.1 µM, first compound 0.000316 µM
  viability, T/C: 101%
Second compound 0.1 µM, first compound 0.001 µM
  viability, T/C: 94.8%
[31]
  viability, T/C: 84.5%
[32]
  viability, T/C: 80.2%
[1]
  viability, T/C: 81.7%
[2]
  viability, T/C: 81%
Second compound 0.316 µM, first compound 0.000316 µM
  viability, T/C: 104%
Second compound 0.316 µM, first compound 0.001 µM
  viability, T/C: 81.2%
[33]
  viability, T/C: 82.1%
[34]
  viability, T/C: 76.7%
[7]
  viability, T/C: 81.8%
[8]
  viability, T/C: 80.3%
Second compound 1 µM, first compound 0.000316 µM
  viability, T/C: 114%
Second compound 1 µM, first compound 0.001 µM
  viability, T/C: 119%
[35]
  viability, T/C: 112%
[36]
  viability, T/C: 93.8%
[13]
  viability, T/C: 91.5%
[14]
  viability, T/C: 89.6%
Second compound 3.16 µM, first compound 0.000316 µM
  viability, T/C: 2.53%
Second compound 3.16 µM, first compound 0.001 µM
  viability, T/C: 1.22%
[37]
  viability, T/C: 2.97%
[38]
  viability, T/C: 1.01%
[19]
  viability, T/C: 0.7%
[20]
  viability, T/C: 0.26%
Second compound 10 µM, first compound 0.000316 µM
  viability, T/C: 0.78%
Second compound 10 µM, first compound 0.001 µM
  viability, T/C: 0.71%
[39]
  viability, T/C: 0.43%
[40]
  viability, T/C: 0.21%
[25]
  viability, T/C: 0.16%
[26]
  viability, T/C: 1.36%
